A short description of data set [1]: Dog pharmacokinetics, oral gavage suspension. Type of data set: in vivo, beagle dogs. The settings on record: for MRT last / half-life: dog, plasma; for MRT last / half-life / ClF: male beagle dogs, oral suspension, mean. As to the method:
In a follow-up study, the pharmacokinetics of tris salt Compound 1 were investigated via oral gavage of a 0.5% methylcellulose in saline formulation. Two Groups of animals were tested. In Group 1, three male beagle dogs were administered a single dose of 3 mg/kg Compound 1 tris salt. In Group 2, three male beagle dogs were administered a single dose of 30 mg/kg Compound 1 tris salt. Plasma was collected pre-dose, and at 0.5, 1, 2, 4, 8, 12 and 24 hours post-dose via puncture of peripheral veins.
LC MS-MS Analysis. Liquid Chromatography with tandem mass spectrometry was used to determine plasma concentrations of Compound 1 Free Acid and Compound 1 Tris Salt in plasma samples collected at prescribed time points. Instrumentation included YMC-Triart C18, S-5 μm (50×2.1 mm) HPLC column, liquid chromatograph Shimadzu LC-30AD with communications bus module CBM-20A and Auto SIL-20AC HT; and a Triple Quad 5500 LC/MS/MS instrument. Tolbutamide was used as an internal standard.

Data set [2] is described as follows: 28-day repeat-dose toxicity study in rats. Type of data set: in vivo. The settings on record: Sprague Dawley, rat; for AUC(0-t) / Cmax: plasma; for AUC(0-t): read-out: AUC0-24 at NOAEL; for Cmax: read-out: Cmax at NOAEL. As to the method:
(§1) Compound 1 was administered to Sprague Dawley rats by oral gavage at doses of 25, 75, and 250 mg/kg/day (females) and 40, 120, and 400 mg/kg/day (males) for 28 days. Compound 1-related mortality occurred in 8 of the 15 toxicity males administered 400 mg/kg/day beginning on Day 8 through 24. […] Target tissues included bone marrow, spleen, thymus, liver, lymph nodes, epididymides, seminal vesicles, prostate, testes, uterus, and ovaries.
(§2) Compound 1 tris salt was evaluated for safety in 7- and 28-day studies in rats and dogs. […] The NOAELs for this rat study were 120 mg/kg/day for males and 75 mg/kg/day for females. […] The NOAEL determined in the 28-day dog GLP study was 150 mg/kg/day. These correspond to human equivalent doses (HEDs) of: • Rat: 75 mg/kg×0.16=12 mg/kg • Dog: 150 mg/kg×0.54=81 mg/kg

The next data set in a line: in vivo. The settings on record: both sexes, beagle, dog. Also noted: species or system beagle dogs. On the procedure: (§3) Compound 1 was administered to beagle dogs by oral gavage in a range finding study at doses of 30, 79, 240, or 790 mg/kg. […] Compound 1 was administered at doses of 10, 50, and 150 mg/kg/day in the pivotal repeat dose toxicity studies for 28 days.
as §2

Data set [3] has as its system beagle dogs. Kind of data set: in vivo. The settings on record: both, dog, 28 days. On the procedure:
as §3, §2

A further data set deals with hERG channel (Homo sapiens, UniProt Q12809). The data set can be described thus: in vitro hERG assay. Type of data set: cell-based. As to conditions: determination precluded by potential cytotoxicity at >300 μM; read-out: half maximal inhibitory concentration (IC50) against the hERG channel. As to the method:
(§4) The safety pharmacology of Compound 1 and its tris salt was evaluated in an in vitro human ether-à-go-go related gene (hERG) assay, a behavioral study in Sprague Dawley rats, and a respiratory and cardiovascular system assessment using electrocardiogram (ECG)-telemetered beagle dogs. […] Determination of the IC50 against the hERG channel was precluded due to potential cytotoxicity at doses >300 μM. […] Cardiovascular safety pharmacology assessments noted decreases in PR interval duration that were detected up to 9 hours post administration of Compound 1 and were usually dose related and associated with potential changes in heart rate. These changes were considered biologically insignificant due to their small magnitude (up to 10 msec compared to vehicle control), association with potential increases in heart rate, and the absence of correlated findings.

Data set [4] concerns Sprague Dawley rats. The data set can be described thus: Behavioral safety pharmacology study. Type of data set: in vivo. The settings on record: oral dose of up to 400 mg/kg, male rats (highest dose tested). On the procedure:
as §4

For data set [5], the system named is beagle dogs. The data set can be described thus: Respiratory and cardiovascular assessment in ECG-telemetered dogs. Type of data set: in vivo. On the procedure:
as §4

Data set [6] is described as follows: ADME: intravenous clearance and oral bioavailability. Type of data set: in vivo. The source says: The absorption, distribution, metabolism, and excretion properties of Compound 1 have been characterized in both in vitro and in vivo studies. Sensitive and selective bioanalytical methods have been developed and validated for rat and dog plasma. Following intravenous administration, the systemic clearance of Compound 1 in all species evaluated was considered low. Following oral administration, bioavailability was generally greater than 30% in the species evaluated. Initial studies utilized the Compound 1 free form. […] All Good Laboratory Practice (GLP) studies were performed using the Compound 1 tris salt form. Dose levels indicate Compound 1 free form equivalents unless otherwise noted.

Data set [7] relates to Sprague Dawley rats. Kind of data set: 28-day repeat-dose toxicity study in rats. Type of data set: in vivo. The settings on record: male, rat, in vivo, 400 mg/kg/day, 28 days. On the procedure:
as §1, §2

Data set [8] relates to beagle dogs. The data set can be described thus: Range finding toxicity study in dogs. Type of data set: in vivo. On the procedure: as §3
For data set [9], the system named is primary human lung fibroblasts. Kind of data set: Fibroblast-to-myofibroblast transition. Type of data set: cell-based. The source says: The reduction of lung fibrosis upon MCT4 inhibition is coupled with changes in serum metabolites that indicates turnover of extracellular matrix protein and increased fatty acid oxidation.
Data set [10] has as its system bleomycin-induced lung fibrosis. The data set can be described thus: Bleomycin-induced lung fibrosis model. Type of data set: in vivo, mice. On the procedure:
The reduction of lung fibrosis upon MCT4 inhibition is coupled with changes in serum metabolites that indicates turnover of extracellular matrix protein and increased fatty acid oxidation. […] The effects of Compound 1, alone or in combination with approved IPF drugs pirfenidone or nintedanib, were studied in the bleomycin-induced lung fibrosis model in therapeutic mode. Compound 1 was dosed at 3 mg/kg, BID; pirfenidone was dosed at 100 mg/kg, BID; and nintedanib was dosed at 50 mg/kg, QD, all via oral gavage.

Structures can show the parent of a compound that is named as a salt. Where two headings read alike, the source gives them in different places.

hERG channel, sequence (Q12809 whole entry): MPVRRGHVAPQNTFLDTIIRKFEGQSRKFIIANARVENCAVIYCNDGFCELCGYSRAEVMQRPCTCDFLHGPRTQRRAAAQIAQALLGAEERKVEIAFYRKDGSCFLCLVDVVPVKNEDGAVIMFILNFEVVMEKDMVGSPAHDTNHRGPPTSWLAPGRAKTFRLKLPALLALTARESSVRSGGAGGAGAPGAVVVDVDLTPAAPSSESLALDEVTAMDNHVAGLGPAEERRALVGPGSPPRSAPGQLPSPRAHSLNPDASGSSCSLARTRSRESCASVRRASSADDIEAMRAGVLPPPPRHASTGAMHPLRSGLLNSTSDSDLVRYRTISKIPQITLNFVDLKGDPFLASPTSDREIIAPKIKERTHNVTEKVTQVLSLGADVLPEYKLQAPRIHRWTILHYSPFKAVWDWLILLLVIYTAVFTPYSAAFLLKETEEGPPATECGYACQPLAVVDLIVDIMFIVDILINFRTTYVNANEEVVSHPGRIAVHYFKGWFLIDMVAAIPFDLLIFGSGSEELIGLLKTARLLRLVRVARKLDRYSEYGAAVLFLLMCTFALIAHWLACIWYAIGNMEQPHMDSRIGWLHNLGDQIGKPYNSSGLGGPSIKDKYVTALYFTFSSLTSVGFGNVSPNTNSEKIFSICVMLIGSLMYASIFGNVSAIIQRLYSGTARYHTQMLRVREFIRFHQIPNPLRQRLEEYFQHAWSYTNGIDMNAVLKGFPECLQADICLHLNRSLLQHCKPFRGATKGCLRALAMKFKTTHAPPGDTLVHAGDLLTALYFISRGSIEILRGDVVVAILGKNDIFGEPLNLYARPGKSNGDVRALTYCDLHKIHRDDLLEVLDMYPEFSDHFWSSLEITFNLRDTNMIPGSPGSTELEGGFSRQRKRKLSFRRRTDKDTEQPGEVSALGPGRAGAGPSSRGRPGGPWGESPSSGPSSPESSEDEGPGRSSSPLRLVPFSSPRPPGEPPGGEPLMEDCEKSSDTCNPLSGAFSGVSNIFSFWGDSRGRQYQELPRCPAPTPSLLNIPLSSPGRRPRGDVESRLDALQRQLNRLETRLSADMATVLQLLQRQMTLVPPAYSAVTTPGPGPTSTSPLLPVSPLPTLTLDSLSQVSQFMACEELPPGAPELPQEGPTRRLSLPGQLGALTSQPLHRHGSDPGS

Turning to `CC(C)(OCc1cc(-c2cccc(OC3CCC3)c2)n(-c2ccccc2N2CCC2)n1)C(=O)O` [Compound 1 tris salt, tris salt of 2-((1-(2-(azetidin-1-yl)phenyl)-5-(3-cyclobutoxyphenyl)-1H-pyrazol-3-yl)methoxy)-2-methylpropanoic acid], the mean residence time MRT last was 2.34 h in data set [1] (3 mg/kg) and 3.81 h in data set [1] (30 mg/kg). The values for the half-life in [1] (3 mg/kg) and in data set [1] (30 mg/kg) were 4.74 h and 3.69 h, respectively. The Clinical symptoms entry in [1] (dogs, single 3 or 30 mg/kg oral gavage dose) was “No abnormal clinical symptoms were observed”. Also, the ClF in data set [1] (3 mg/kg) is given as 602; in data set [1] (30 mg/kg), 547. The Human equivalent dose of NOAEL at 28 days in [2] (female, in vivo, 75 mg/kg) was found to be 12 mg/kg; in the data set “in vivo” (150 mg/kg), 81 mg/kg. Besides, in the data set on beagle dogs [3], the Adverse effects entry is listed as “no Compound 1 tris salt-related adverse effects”.

Consider `CC(C)(OCc1cc(-c2cccc(OC3CCC3)c2)n(-c2ccccc2N2CCC2)n1)C(=O)O` [Compound 1, 2-((1-(2-(azetidin-1-yl)phenyl)-5-(3-cyclobutoxyphenyl)-1H-pyrazol-3-yl)methoxy)-2-methylpropanoic acid], for which, at hERG channel, the IC50 is over 300 µM. Moreover, the Behavioral effects result with Sprague Dawley rats [4] is “no Compound 1-related behavioral effects”. Also, the “Time post administration at which decreases in PR interval duration were detected” value in the data set with beagle dogs [5] (dogs) was “up to 9 hours”. The “Decrease in PR interval duration, magnitude” value with beagle dogs [5] (dogs, compared to vehicle control) is “up to 10 msec”. The Respiratory effects entry in the data set with beagle dogs [5] (oral dose of up to 150 mg/kg, dogs (highest dose tested)) was “no significant respiratory effects”. The Systemic clearance entry in [6] (intravenous administration, all species evaluated) is on record as “low”. In [6] (plasma, oral administration, species evaluated), this molecule had a bioavailability of over 30%. The no-observed-adverse-effect level (NOAEL) at 28 days in data set [2] (in vivo, male rats, 28 days oral gavage, read-out: NOAEL) was found to be 120 mg/kg/day; in data set [2] (female, in vivo, po) it was 75 mg/kg/day; in the data set “in vivo”, 150 mg/kg/day. In addition, the AUC(0-t) in [2] (po, female rats, 75 mg/kg/day) came out at 3230 µg·h/mL; in data set [2] (po, male rats, 120 mg/kg/day), 2780 µg·h/mL. For the same molecule, the Cmax in [2] (po, female rats, 75 mg/kg/day) was determined as 198 µg/mL; in data set [2] (po, male rats, 120 mg/kg/day), 180 µg/mL. In addition, the Compound-related mortality with Sprague Dawley rats [7] is 8 of the 15. Also, the “Dose at which decreased thymus weights were observed” value in the data set on beagle dogs [8] (dogs) is at least 240 mg/kg. In the data set on beagle dogs [8] (dogs, oral gavage 30, 79, 240, or 790 mg/kg, all dose levels), the Clinical observations result is “Watery feces and emesis were occasionally observed”. The Electrolyte changes result in the data set with beagle dogs [8] (male dogs, 790 mg/kg) was “increased potassium and decreased sodium and chloride”. In [9], the Fibroblast-to-myofibroblast transition entry is given as “attenuates the fibroblast-to-myofibroblast transition”. For the same molecule, the “Production of alpha-smooth muscle actin (αSMA)” value in [9] is given as “reducing the production”. Besides, the Lung fibrosis result in data set [10] (aged (>60 week) mice) is recorded as “reduced lung fibrosis”; in data set [10] (bleomycin-induced mouse model of IPF), “reduces lung fibrosis”. Moreover, the Lung lactate levels entry in [10] (aged (>60 week) mice) was “reduction in lung lactate levels”. The Minimal efficacious dose in data set [10] (twice daily (BID), bleomycin-induced mouse model of IPF) is 3 mg/kg.
